# Laboratory results published in patent US12201633B2, “Compounds and methods for treatment of visceral pain” (Arena Pharmaceuticals, Inc., priority 2017, dated 2025).
# Columns and labels:
# [1] = test system: rats following ligation of spinal nerves; details: local (subcutaneous) or systemic administration; cited from earlier work
# [2] = test system: rodents, models of inflammatory pain; details: systemic delivery; cited from earlier work
# [3] = test system: male Sprague Dawley rats, MIA model of osteoarthritis; assay: Monosodium iodoacetate (MIA) model of osteoarthritis pain; format: in vivo, rat; details: 3, 10 and 30 mg/kg orally, one hour after dosing, vehicle PEG400; FIG. 2
# From the text: Injection of monosodium iodoacetate (MIA) into a joint (Kalbhen, 1987) inhibits the activity of glyceraldehyde-3-phosphate dehydrogenase in chondrocytes, resulting in disruption of glycolysis and eventually in cell death. The progressive loss of chondrocytes results in histological and morphological changes of the articular cartilage, closely resembling those seen in osteoarthritis patients.
# The osteoarthritis was induced in 200 g male Sprague Dawley rats. […]
# Typically, during disease progression, there was an inflammation period of 0-7 days post-intra-articular injection followed by progressive degeneration of the cartilage and subchondral bone from days 14-55. […] Tactile allodynia was measured via von Frey assay, hind limb paw weight distribution was monitored using an incapacitence tester (Columbus Instruments, Columbus, OH, USA) and hind limb grip strength was measured using a grip strength meter (Columbus Instruments, Columbus, OH, USA). […] Hind paw weight distribution was determined by placing rats in a chamber so that each hind paw rests on a separate force plate of the incapacitence tester. The force exerted by each hind limb (measured in grams) is averaged over a 3 second period. Three measurements were taken for each rat, and the change in hind paw weight distribution calculated. […]
# [4] = test system: male Sprague Dawley rats, paclitaxel-induced allodynia; assay: Paclitaxel-induced allodynia; format: in vivo, rat; details: 10 mg/kg orally, FIG. 3
# Procedure: Animals: Male Sprague Dawley rats [200-250 g] (Harlan Laboratories Inc., Livermore, CA) were housed three per cage and maintained in a humidity-controlled (40-60%) and temperature-controlled (68-72° F.) facility on a 12 h:12 h light/dark cycle (lights on at 6:30 am) with free access to food (Harlan Teklad, Orange, CA, Rodent Diet 8604) and water. Rats were allowed one week of habituation to the animal facility before starting treatment.
# Induction of Allodynia: Rats were treated intraperitoneally, with 2 mg/kg of paclitaxel (Sigma Aldrich, Saint Louis, MO) in 10% Cremophor vehicle (500 μL) on days 0, 2, 4, and 6.
# Clinical scoring: Tactile allodynia was tested using von Frey filaments. Briefly, the von Frey assay was performed using the standardized up down method with von Frey filaments, that determine the tactile sensitivity of the paw. By applying the increasingly or decreasingly thicker filaments to the paw in a logarithmic scale of actual force, a linear scale of perceived intensity is determined.
# Drug treatment: Eight days after the start of paclitaxel dosing, a baseline measurement (von Frey assay) was performed prior to dosing of compounds. […] As a positive control, rats were dosed intraperitoneally with 100 mg/kg gabapentin in water. The dosing volume for oral and peritoneal treatment was 500 μL. […]
# [5] = test system: male Sprague Dawley rats, FCA-induced hyperalgesia; assay: FCA-induced hyperalgesia model of inflammatory pain; format: in vivo, rat; details: 0.1, 1, 3, 10 and 30 mg/kg orally, 1-hour post dosing, vehicle PEG400; FIG. 1
# Procedure: Animal info: Male Sprague Dawley rats from Harlan (200-225 g when received) were used. Upon arrival, rats were housed 4 per cage in shoe-box polycarbonate cages with wire tops, wood chip bedding and suspended food and water bottles. Animals were acclimated for 5-7 days prior to being injected with Freund's complete adjuvant (FCA) (Sigma; catalog #5881).
# Experimental procedure: 2 days (48 h) before testing compounds, baseline readings of all rats were taken right before FCA injection. Rats were then injected with 50 μL FCA containing 1 mg/mL Mtb (Mycobacterium tuberculosis) in right hind footpad under inhalation anesthesia (isoflurane). 48 hours after FCA injection, readings were taken as pre-dosing baseline and then rats were dosed orally with 0.5 mL of vehicle or compound (0.5 mL per 250 g rat). Readings were taken again at 1-hour post dosing. All readings were taken with an Analgesy-Meter (Ugo Basile) which measures mechanical hyperalgesia via paw pressure.
# Clinical scoring: FCA-induced hyperalgesia was tested with an Analgesy-Meter. Briefly, the Analgesy Meter applied an increasing pressure to the right hind paw. The paw withdrawal threshold was the pressure leading to withdrawal.
# Meanwhile a group of rats were dosed orally with 50 mg/kg of Diclofenac as a positive control. Readings were taken again at 1-hour post dosing. Dosing volume was 500 μL per 250 g rat.
# hCB1 [6] = biological target: T1, hCB1 (Homo sapiens, UniProt P21554); assay: Interaction with recombinant human CB1; details: test concentrations up to 10 μM
# [7] = test system: recombinant dog CB1 receptors; assay: Interaction with recombinant dog CB1; details: test concentrations up to 10 μM
# [8] = test system: male Sprague-Dawley rats, STZ-induced PDPN; assay: Streptozotocin-induced painful diabetic peripheral neuropathy (PDPN) model; format: in vivo, rat; details: 10 mg/kg orally in 0.5% methylcellulose; 1, 4 and 6 hours post-dosing; FIG. 9, FIG. 10
# Procedure: Male Sprague-Dawley rats were injected intraperitoneally with 50 mg/kg of streptozotocin (STZ) in sodium citrate buffer. 10% sucrose water was provided ad libitum for the first 48 hours post-STZ followed by regular drinking water. Rats were monitored once weekly for blood glucose levels and body weights. Development of tactile allodynia over time was analyzed using Von Frey filaments and a 50% withdrawal threshold was determined using Dixon's up-down procedure. […] Tactile allodynia was evaluated at 1, 4 and 6 hours post-dosing.
# [9] = biological target: recombinant rat CB1 receptors (Rattus norvegicus, UniProt P20272); assay: Interaction with recombinant rat CB1; details: test concentrations up to 10 μM
# human CB2 receptor [10] = biological target: T2, human CB2 receptor (Homo sapiens, UniProt P34972); assay: GPCR signaling assay, recombinant human CB2; format: cell-based
# [11] = test system: Sprague Dawley rats, acetic acid-induced writhing; assay: Acetic acid-induced writhing model of visceral pain; format: in vivo, rat; details: 3, 10, 30 mg/kg PO, acetic acid 1.5% IP; FIGS. 11 and 12
# Procedure: Writhing is induced in male Sprague Dawley rats by administering glacial acetic acid (1.5%) intraperitoneally (IP). […] On test day, rats are placed in observation cages and administered compound according to the schedules in Tables D, F, H, and J. Treatment groups are as provided in Tables E, G, I, and K.
# Studies are performed to evaluate single dose assessment (Tables D and E), maintenance of efficacy after repeated administration (Tables F and G), antagonist interactions (Tables H and I), and dose response (Tables J and K).
# Writhing behavior is scored for 30 minutes in five-minute time bins.
# Writhing behavior was evaluated 20 minutes later and recorded for 30 minutes (in five-minute bins).
# [12] = test system: rats with TNBS-induced colitis and healthy rats; assay: Visceral pain model of colitis: visceromotor response to colorectal distension after TNBS; format: in vivo, rat
# Procedure: Rats with active colitis display allodynia and hyperalgesia to colorectal distension following the administration of trinitrobenzene sulfonic acid (TNBS).
# Abdominal electromyographic (EMG) electrode implantation is followed by measurement of visceromotor response (VMR) at 0, 20, 40, 60, and 80 mmHg of colorectal distention on day 4. The effect of each treatment on colonic compliance is also determined.
# Abdominal EMG electrode implantation is followed by measurement of VMR at 0, 20, 40, 60, and 80 mmHg of colorectal distention on day 4. The effect of each treatment on colonic compliance is also determined.
# [13] = biological target: T3, recombinant CB2 receptors (rat) (Rattus norvegicus, UniProt Q9QZN9); assay: GPCR signaling assay, recombinant rat CB2; format: cell-based; details: GPCR signaling assays, recombinant receptor
# T3 sequence (Q9QZN9 1-360): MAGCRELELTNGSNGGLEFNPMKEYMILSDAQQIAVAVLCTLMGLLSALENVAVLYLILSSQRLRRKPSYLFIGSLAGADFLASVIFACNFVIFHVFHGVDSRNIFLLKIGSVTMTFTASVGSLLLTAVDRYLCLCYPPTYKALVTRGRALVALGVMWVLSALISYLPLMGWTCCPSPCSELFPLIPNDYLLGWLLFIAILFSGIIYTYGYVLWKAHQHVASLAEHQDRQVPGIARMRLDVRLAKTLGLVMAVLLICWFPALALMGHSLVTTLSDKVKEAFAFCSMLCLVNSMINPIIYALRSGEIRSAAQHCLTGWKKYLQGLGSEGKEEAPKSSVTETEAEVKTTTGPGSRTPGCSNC
# Procedure: (§1) The binding affinity, potency, and selectivity of Compound A for recombinant CB2 receptors were determined using radioligand binding assays and GPCR signaling assays.
# [14] = biological target: T4, recombinant CB2 receptors (dog) (Canis lupus familiaris, UniProt E2RKA3); assay: GPCR signaling assay, recombinant dog CB2; format: cell-based; details: GPCR signaling assays, recombinant receptor
# T4 construct: other: GPCR signaling assays, recombinant receptor
# Procedure: as §1
# hCB1 [15] = biological target: T1, hCB1; assay: Radioligand binding assay, hCB1; details: Table C
# human CB2 receptor [16] = biological target: T2, human CB2 receptor; assay: Radioligand binding assay, hCB2; parameters: 93-0164 (CHO-K1 EA-Arrestin parental line); host or cells: CHO-K1 EA-Arrestin, clone #61; details: Table C
# Procedure: Preparation of Membranes: HTEK293 cells stably expressing human CB2 receptor were collected, washed in ice cold PBS, and centrifuged at 48,000×g for 20 min at 4° C. The cell pellet was then collected, resuspended in wash buffer (20 mM HEPES, pH 7.4 and 1 mM EDTA), homogenized on ice using a Brinkman Polytron, and centrifuged at 48,000×g for 20 min at 4° C. The resultant pellet was resuspended in ice cold 20 mM HEPES, pH 7.4, homogenized again on ice, recentrifuged for 20 min at 4° C., and membrane pellets were then stored at −80° C. until needed.
# [^3H]CP55,940 and [^3H]WIN55,212-2 Radioligand Binding Assays: Radioligand binding assays for human CB2 receptors were performed using two different agonist radioligands, [^3H]CP55,940 and [^3H]WIN55,212-2 and similar assay conditions. For both assays, nonspecific binding was determined in the presence of 10 mM unlabeled compound. […] Then, 25 μL of BetaScint scintillation cocktail was added to each well, and plates were read in a Packard TopCount scintillation counter.
# [17] = test system: capsaicin-induced hyperalgesia and allodynia; details: topical administration, humans; cited from earlier work
# CB1 = CB1 (Mus musculus, UniProt P47746); details: exogenous administration; cited from earlier work
# Chain of CB1 (P47746 whole entry): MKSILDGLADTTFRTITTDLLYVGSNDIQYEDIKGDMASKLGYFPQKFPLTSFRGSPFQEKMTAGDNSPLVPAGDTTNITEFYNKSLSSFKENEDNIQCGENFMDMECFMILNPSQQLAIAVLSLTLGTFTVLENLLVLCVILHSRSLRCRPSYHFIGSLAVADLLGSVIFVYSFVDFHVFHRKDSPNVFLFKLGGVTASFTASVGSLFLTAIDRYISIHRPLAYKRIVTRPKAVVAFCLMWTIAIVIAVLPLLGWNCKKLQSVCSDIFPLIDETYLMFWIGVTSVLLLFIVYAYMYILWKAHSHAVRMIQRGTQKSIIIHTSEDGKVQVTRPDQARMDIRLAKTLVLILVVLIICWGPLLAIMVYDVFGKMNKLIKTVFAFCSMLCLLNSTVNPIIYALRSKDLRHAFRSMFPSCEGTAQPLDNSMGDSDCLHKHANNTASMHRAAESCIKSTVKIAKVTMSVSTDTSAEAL
# T1 sequence (P21554 whole entry): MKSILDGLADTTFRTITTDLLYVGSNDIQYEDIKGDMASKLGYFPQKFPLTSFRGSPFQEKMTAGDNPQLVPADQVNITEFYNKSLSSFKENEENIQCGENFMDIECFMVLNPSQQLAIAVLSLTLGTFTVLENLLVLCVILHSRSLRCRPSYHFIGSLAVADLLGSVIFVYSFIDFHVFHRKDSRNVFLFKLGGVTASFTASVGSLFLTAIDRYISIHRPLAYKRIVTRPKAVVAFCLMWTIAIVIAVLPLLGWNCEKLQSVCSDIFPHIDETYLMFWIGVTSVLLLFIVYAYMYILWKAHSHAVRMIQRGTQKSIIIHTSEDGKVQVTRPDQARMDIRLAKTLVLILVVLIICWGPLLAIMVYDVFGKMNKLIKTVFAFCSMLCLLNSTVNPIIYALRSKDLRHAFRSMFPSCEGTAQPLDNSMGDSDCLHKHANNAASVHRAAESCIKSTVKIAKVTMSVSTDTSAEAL
# T2 sequence (P34972 whole entry): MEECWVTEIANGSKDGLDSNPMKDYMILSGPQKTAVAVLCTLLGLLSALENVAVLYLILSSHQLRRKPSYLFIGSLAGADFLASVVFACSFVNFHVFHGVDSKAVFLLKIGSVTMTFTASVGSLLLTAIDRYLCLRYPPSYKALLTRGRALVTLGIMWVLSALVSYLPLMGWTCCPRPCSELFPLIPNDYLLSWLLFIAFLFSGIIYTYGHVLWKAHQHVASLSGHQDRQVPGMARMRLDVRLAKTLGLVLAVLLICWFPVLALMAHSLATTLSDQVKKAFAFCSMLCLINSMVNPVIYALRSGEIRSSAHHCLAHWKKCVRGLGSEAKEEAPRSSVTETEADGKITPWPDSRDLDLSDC
# T4 sequence (E2RKA3 1-360): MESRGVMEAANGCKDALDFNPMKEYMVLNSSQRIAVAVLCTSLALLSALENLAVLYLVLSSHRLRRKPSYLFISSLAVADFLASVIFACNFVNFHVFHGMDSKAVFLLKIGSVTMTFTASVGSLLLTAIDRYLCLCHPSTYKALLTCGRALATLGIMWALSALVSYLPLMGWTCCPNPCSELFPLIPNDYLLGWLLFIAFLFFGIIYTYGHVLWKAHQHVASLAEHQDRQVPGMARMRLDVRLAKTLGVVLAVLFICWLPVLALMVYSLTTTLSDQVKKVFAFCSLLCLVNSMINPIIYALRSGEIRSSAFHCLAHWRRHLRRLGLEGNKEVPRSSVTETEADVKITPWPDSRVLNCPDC
# Chain of recombinant rat CB1 receptors (P20272 whole entry): as the sequence (P47746 whole entry) above, with D95E counted along it
compound,measurement,setting,value
CN1CCCCC1Cn1cc(C(=O)c2cc([N+](=O)[O-])ccc2I)c2ccccc21 (stereo not drawn) [AM1241],Tactile and thermal hypersensitivity,[1],reverses tactile and thermal hypersensitivity
same,"Hyperalgesia in carrageenan, capsaicin, and formalin models",[2],suppresses hyperalgesia
"CC(C)(CO)NC(=O)c1nn(-c2ccc(F)cc2F)c2c1C[C@H]1C[C@@H]21 [Compound 493, (1aR,5aR)-2-(2,4-Difluoro-phenyl)-1a,2,5,5a-tetrahydro-1H-2,3-diaza-cyclopropa[a]pentalene-4-carboxylic acid (2-hydroxy-1,1-dimethyl-ethyl)-amide]",Paw withdrawal threshold (PWT) in comparison with vehicle,[3],Increase in paw withdrawal threshold (PWT)
same,Time of maximum efficacy post-dosing,[4],1 h
same,Paw withdrawal threshold (PWT) in comparison with vehicle and gabapentin,"[4]; von Frey 30, 60 and 180 minutes after dosing",increase in paw withdrawal threshold (PWT)
same,Paw withdrawal threshold (PWT) in comparison with the vehicle,[5],increase in paw withdrawal threshold (PWT)
"CC(C)(C)[C@@H](CO)NC(=O)c1nn(-c2c[n+]([O-])ccn2)c2c1C[C@@H]1C[C@H]21 [Compound 699, (1aS,5aS)-2-(4-Oxy-pyrazin-2-yl)-1a,2,5,5a-tetrahydro-1H-2,3-diaza-cyclopropa[a]pentalene-4-carboxylic acid ((S)-1-hydroxymethyl-2,2-dimethyl-propyl)-amide]",Interaction with recombinant human CB1 receptors,hCB1 [6],did not interact
same,Interaction with recombinant dog CB1 receptors,[7],did not interact
same,"Analgesic efficacy (tactile allodynia, 50% withdrawal threshold)",[8],robust and sustained analgesic efficacy over 6 hours
same,Interaction with recombinant rat CB1 receptors,[9],did not interact
same,Kind of activity at the CB2 receptor,human CB2 receptor [10],full agonist
same,Efficacy on writhing behavior,[11],efficacious
same,Response (VMR) in rats with healthy colons,[12]; 30 mg/kg oral gavage twice daily for five days,without changing response
same,"Colonic hypersensitivity, dose dependence","[12]; 10 and 30 mg/kg oral gavage twice daily, rats with TNBS-induced colitis",reducing colonic hypersensitivity in a dose-dependent manner
same,"Visceral pain response (VMR to colorectal distension), rats with TNBS-induced colitis","[12]; 10 or 30 mg/kg oral gavage twice daily for five days, FIG. 13",reduces the visceral pain response
same,EC50,[13],6 to 8 nM
same,EC50,[14],6 to 8 nM
"CONC(=O)[C@@H](NC(=O)c1nn(-c2c[n+]([O-])ccn2)c2c1C[C@H]1C[C@@H]21)C(C)(C)C [Compound 755, (1aR,5aR)-2-(4-Oxy-pyrazin-2-yl)-1a,2,5,5a-tetrahydro-1H-2,3-diaza-cyclopropa[a]pentalene-4-carboxylic acid ((S)-1-methoxycarbamoyl-2,2-dimethyl-propyl)-amide]",Ki,hCB1 [15],1200 nM
same,Ki,human CB2 receptor [16],3.8 nM
CCCCCCC(C)(C)c1cc(O)c2c(c1)OC(C)(C)[C@@H]1CC=C(CO)C[C@@H]21 [HU-210],Capsaicin-induced hyperalgesia and allodynia,[17],attenuates capsaicin-induced hyperalgesia and allodynia
CCCCC/C=C\C/C=C\C/C=C\C/C=C\CCCC(=O)NCCCl [arachidonyl-2-chloroethylamide],Effect on pain,CB1,reduces pain
